# Results as given in publication PMC10903983, “Inducing mitochondriopathy-like damages by transformable nucleopeptide nanoparticles for targeted therapy of bladder cancer” (National Science Review, 2024).
# Non-standard residues stand in square brackets, D forms with d. Residues, ends and D or L forms follow the SMILES beside them. *: point of attachment. Coumarin3carbonyl(7-OH) = O=C(c1cc2ccc(O)cc2oc1=O)*; Acetyl(thymin-1-yl) = Cc1cn(CC(=O)*)c(=O)[nH]c1=O; PEG8 = NCCOCCOCCOCCOCCOCCOCCOCCOCCC(=O)O
# Experiments:
# [1] = tested on: T24 cells; experiment: CCK-8 cytotoxicity assay, T24 cells; format: cell-based, human; conditions: 48 h; for IC50: human
# [2] = tested on: EJ cells; format: cell-based; conditions: human, 48 h
# [3] = tested on: RT-112 cells; format: cell-based; conditions: human, 48 h
# [4] = ATP sequestration: ATP hydrolysis by alkaline phosphatase (ALP); format: biochemical; conditions: ATP 200 μM, ALP 0.5 U/mL, DEA buffer 10 mM pH 9.8, 37 °C, bioluminescence, blank control 13%
# [5] = tested on: SV-HUC-1 cells; experiment: Toxicity assay towards SV-HUC-1 normal bladder cells; format: cell-based; conditions: viability, different concentrations, 48 h
# [6] = tested on: T24 xenograft mice; experiment: In vivo / ex vivo dose-dependent fluorescence imaging in T24 xenograft mice; conditions: i.v., 500 μM or 250 μM in 200 μL PBS, 1-96 hours, N = 3
# [7] = tested on: T24 xenograft mice; experiment: In vivo antitumor evaluation, T24 subcutaneous xenograft model; conditions: i.v. 500 μM in 200 μL PBS six times
# Experimental: 3 mm at 8 h post-treatment. The fragments were then fixed with 2.5% glutaraldehyde at 4°C overnight and treated with 1% […] for 2 h after being rinsed thrice with PBS.
# Subsequently, graded concentrations of alcohol solutions (50, 70, 80, 90, 100, 100 and 100%) were utilized for graded dehydration (with 10 minutes each). Next, tumor fragments were exposed to a mixture of alcohol/acetone (1:1) for 10 min, a mixture of acetone/EPON-812 (1:1) for 1 h and a mixture of acetone/EPON-812 (1:2) for 1 h. Pure EPON-812 was then utilized to further infiltrate the tumor fragments overnight at 4°C, after which it was cured at 37, 45 and 60°C for 24 h respectively. Finally, the morphology of NLS-FF-T in the tumor slice was observed by bio-Transmission Electron Microscope (bio-TEM) after being stained with 2% uranyl acetate and 3% lead citrate.
# To further verify the therapeutic potency of the IAS system, a T24 xenograft mouse […]
# When the average tumor volume reached 100-200 mm3, the T24 tumor-bearing mice were […]
# The individual tumor growth and body weight were measured every 2 d for analysis, with tumor volume calculated as follows: tumor width2 × tumor length × 0.5. […]
# At the end of the treatment period, T24 tumor tissues were collected and washed thrice with PBS. […] The ATP levels were then measured according to the manufacturer’s instructions using an ATP Content Assay Kit. […]
# [8] = tested on: healthy BALB/c nude mice; experiment: In vivo toxicology evaluation in healthy mice; conditions: N = 4
# [9] = tested on: T24 xenograft mice (incomplete tumor resection); conditions: after intravenous administration, tumor-recurrence model
# Experimental: In vivo antitumor evaluation of IAS system in regrowth of residual tumor model
# To establish the T24 xenograft mouse model, BALB/c nude mice (approximately 6-8
# weeks, weighing 16-18 g) were subcutaneously injected with T24 cells (5 × 106) suspended
# in 100 μL Matrigel. The mice were randomly divided into five groups, with six mice in each
# group. Both body weight and tumor volume were measured for analysis. At 21 d after
# inoculation, tumor tissues of approximately 300-500 mm3 were resected, leaving a residual
# tumor of approximately 30-50 mm3. After that, the T24 xenograft mice were intravenously
# administered with PBS, NLS-FF, FF-T, NLS-T and NLS-FF-T (500 μM in 200 μL PBS)
# every two days on day 21, 23, 25, 27, 29 and 31. The tumor volume was calculated using the formula: tumor width2 × tumor length × 0.5.
# For two-group comparisons, statistical analysis was performed using one-way ANOVA
# followed by post hoc Tukey's test. The GraphPad Prism software 8.0 was used for all
# [10] = i.v. 1000, 500 or 250 μM in 200 μL PBS six times
Compound,IC50 [1] [µM],IC50 [2] [µM],IC50 [3] [µM],ATP remaining after ALP catalytic hydrolysis ([4]; NLS-FF-T nanofibers) [%],ATP remaining after ALP catalytic hydrolysis ([4]; NLS-FF-T nanoparticle group) [%],"cytotoxicity against T24 cells compared with T-ATP ([1]; viability, different concentrations)",toxicity towards T24 tumor cells versus SV-HUC-1 normal bladder cells [5],tumor accumulation and retention (in vivo fluorescence imaging) [6],body weight [7],"histology (H&E) of liver and kidney ([8]; i.v. 1000, 500 or 250 μM in 200 μL PBS six times at 2-day intervals)","blood biochemistry (ALT, AST, ALP, BUN, CRE) [8, 10]","routine blood examination (RBC, WBC, PLT, HGB, NEUT) versus PBS [8, 10]",body weights [9]
"Cc1cn(CC(=O)NCCCC[C@H](NC(=O)c2cc3ccc(O)cc3oc2=O)C(=O)N[C@@H](CC(C)C)C(=O)N[C@H](C(=O)NCCOCCOCCOCCOCCOCCOCCOCCOCCC(=O)N[C@H](C(=O)N[C@@H](CCCCN)C(=O)N[C@@H](CCCNC(=N)N)C(=O)N[C@@H](CCCCN)C(=O)N[C@@H](CCCCN)C(=O)N[C@@H](CCCCN)C(=O)N2CCC[C@H]2C(=O)O)C(C)C)C(C)C)c(=O)[nH]c1=O [NLS-T, HCA-K(T)LV-PEG-VKRKKKP] ({Coumarin3carbonyl(7-OH)}-K(Acetyl(thymin-1-yl))LV[PEG8]VKRKKKP-OH)",119,122,107,–,–,–,–,–,–,–,–,–,–
"CC(C)C[C@H](NC(=O)[C@H](CCCCN)NC(=O)c1cc2ccc(O)cc2oc1=O)C(=O)N[C@H](C(=O)N[C@@H](Cc1ccccc1)C(=O)N[C@@H](Cc1ccccc1)C(=O)NCCOCCOCCOCCOCCOCCOCCOCCOCCC(=O)N[C@H](C(=O)N[C@@H](CCCCN)C(=O)N[C@@H](CCCNC(=N)N)C(=O)N[C@@H](CCCCN)C(=O)N[C@@H](CCCCN)C(=O)N[C@@H](CCCCN)C(=O)N1CCC[C@H]1C(=O)O)C(C)C)C(C)C [NLS-FF, HCA-KLVFF-PEG-VKRKKKP] ({Coumarin3carbonyl(7-OH)}-KLVFF[PEG8]VKRKKKP-OH)",532,278,376,–,–,–,–,–,–,–,–,–,–
"Cc1cn(CC(=O)NCCCC[C@H](NC(=O)c2cc3ccc(O)cc3oc2=O)C(=O)N[C@@H](CC(C)C)C(=O)N[C@H](C(=O)N[C@@H](Cc2ccccc2)C(=O)N[C@@H](Cc2ccccc2)C(=O)NCCOCCOCCOCCOCCOCCOCCOCCOCCC(=O)N[C@H](C(=O)N[C@@H](CCCCN)C(=O)N[C@@H](CCCNC(=N)N)C(=O)N[C@@H](CCCCN)C(=O)N[C@@H](CCCCN)C(=O)N[C@@H](CCCCN)C(=O)N2CCC[C@H]2C(=O)O)C(C)C)C(C)C)c(=O)[nH]c1=O [NLS-FF-T, HCA-K(T)LVFF-PEG-VKRKKKP] ({Coumarin3carbonyl(7-OH)}-K(Acetyl(thymin-1-yl))LVFF[PEG8]VKRKKKP-OH)",34,32,43.3,61,27,significantly higher cytotoxicity against T24 cells than that of T-ATP,enhanced toxicity towards tumor cells (T24) than that of normal cells (SV-HUC-1),dose-dependent tumor accumulation and long-time tumor retention,no substantial loss of body weight,no signs of histological deterioration or damage,typical ranges,no differences,no impact
"Cc1cn(CC(=O)NCCCC[C@H](NC(=O)c2cc3ccc(O)cc3oc2=O)C(=O)N[C@@H](CC(C)C)C(=O)N[C@H](C(=O)N[C@@H](Cc2ccccc2)C(=O)N[C@@H](Cc2ccccc2)C(=O)NCCOCCOCCOCCOCCOCCOCCOCCOCCC(=O)NCCOCCOCCOCCOCCOCCOCCOCCOCCC(=O)O)C(C)C)c(=O)[nH]c1=O [FF-T, HCA-K(T)LVFF-PEG2] ({Coumarin3carbonyl(7-OH)}-K(Acetyl(thymin-1-yl))LVFF[PEG8][PEG8]-OH)",408,181,356,–,–,–,–,–,–,–,–,–,–
